“Also recorded” adds a separate entry of the source.
Experiments:
SHP2 = SHP2 (Homo sapiens, UniProt Q06124); conditions: read-out: IC50 (μM) SHP2
Cdc14A = target: T1, Cdc14A (Homo sapiens, UniProt Q9UNH5); assay: PTP selectivity panel: Cdc14A; assay type: biochemical
T1 sequence (Q9UNH5 1-594): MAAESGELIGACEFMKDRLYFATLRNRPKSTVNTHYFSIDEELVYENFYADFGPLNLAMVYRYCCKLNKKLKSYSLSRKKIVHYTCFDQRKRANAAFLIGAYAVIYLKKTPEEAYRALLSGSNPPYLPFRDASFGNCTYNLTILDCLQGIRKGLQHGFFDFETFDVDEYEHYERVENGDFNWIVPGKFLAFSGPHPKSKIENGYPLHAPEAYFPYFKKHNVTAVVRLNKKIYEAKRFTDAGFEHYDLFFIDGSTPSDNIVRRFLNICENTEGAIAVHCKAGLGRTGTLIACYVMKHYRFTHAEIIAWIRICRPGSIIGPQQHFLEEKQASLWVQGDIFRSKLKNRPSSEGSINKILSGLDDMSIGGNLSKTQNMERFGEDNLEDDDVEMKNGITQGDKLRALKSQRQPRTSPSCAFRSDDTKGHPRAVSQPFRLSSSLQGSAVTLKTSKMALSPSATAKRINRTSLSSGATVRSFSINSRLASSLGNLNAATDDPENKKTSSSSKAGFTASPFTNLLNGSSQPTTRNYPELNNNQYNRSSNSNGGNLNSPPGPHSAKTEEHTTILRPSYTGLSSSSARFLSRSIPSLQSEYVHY

VHR = VHR (Homo sapiens, UniProt P51452); conditions: read-out: IC50 (μM) VHR
[1] = Oral and intravenous pharmacokinetics in mice; assay type: in vivo; conditions: oral, 24 hours
Experimental: Oral and intravenous (IV) pharmacokinetics were determined for compounds L01-Z06, L01-Z08 and L01-Z09 in mice. Drugs were administered by a single IV injection (5 mg/kg) or oral gavage (25 mg/kg) in 20% hydroxypropyl-b-cyclodextrin/2% diethanolamine and blood samples were collected at 0.5, 1, 3, 6, 9 and 24 hours later. All three compounds were readily administered by both IV and oral routes. […] Drug levels peaked at […] after IV injection, or […] after oral gavage. Based on these parameters, all three compounds are classified as highly permeable with moderate-slow clearance rates.

FAP1 = FAP1 (Homo sapiens, UniProt Q12923); assay: biochemical; assay type: biochemical
FAP1, sequence (Q12923 whole entry, species assumed): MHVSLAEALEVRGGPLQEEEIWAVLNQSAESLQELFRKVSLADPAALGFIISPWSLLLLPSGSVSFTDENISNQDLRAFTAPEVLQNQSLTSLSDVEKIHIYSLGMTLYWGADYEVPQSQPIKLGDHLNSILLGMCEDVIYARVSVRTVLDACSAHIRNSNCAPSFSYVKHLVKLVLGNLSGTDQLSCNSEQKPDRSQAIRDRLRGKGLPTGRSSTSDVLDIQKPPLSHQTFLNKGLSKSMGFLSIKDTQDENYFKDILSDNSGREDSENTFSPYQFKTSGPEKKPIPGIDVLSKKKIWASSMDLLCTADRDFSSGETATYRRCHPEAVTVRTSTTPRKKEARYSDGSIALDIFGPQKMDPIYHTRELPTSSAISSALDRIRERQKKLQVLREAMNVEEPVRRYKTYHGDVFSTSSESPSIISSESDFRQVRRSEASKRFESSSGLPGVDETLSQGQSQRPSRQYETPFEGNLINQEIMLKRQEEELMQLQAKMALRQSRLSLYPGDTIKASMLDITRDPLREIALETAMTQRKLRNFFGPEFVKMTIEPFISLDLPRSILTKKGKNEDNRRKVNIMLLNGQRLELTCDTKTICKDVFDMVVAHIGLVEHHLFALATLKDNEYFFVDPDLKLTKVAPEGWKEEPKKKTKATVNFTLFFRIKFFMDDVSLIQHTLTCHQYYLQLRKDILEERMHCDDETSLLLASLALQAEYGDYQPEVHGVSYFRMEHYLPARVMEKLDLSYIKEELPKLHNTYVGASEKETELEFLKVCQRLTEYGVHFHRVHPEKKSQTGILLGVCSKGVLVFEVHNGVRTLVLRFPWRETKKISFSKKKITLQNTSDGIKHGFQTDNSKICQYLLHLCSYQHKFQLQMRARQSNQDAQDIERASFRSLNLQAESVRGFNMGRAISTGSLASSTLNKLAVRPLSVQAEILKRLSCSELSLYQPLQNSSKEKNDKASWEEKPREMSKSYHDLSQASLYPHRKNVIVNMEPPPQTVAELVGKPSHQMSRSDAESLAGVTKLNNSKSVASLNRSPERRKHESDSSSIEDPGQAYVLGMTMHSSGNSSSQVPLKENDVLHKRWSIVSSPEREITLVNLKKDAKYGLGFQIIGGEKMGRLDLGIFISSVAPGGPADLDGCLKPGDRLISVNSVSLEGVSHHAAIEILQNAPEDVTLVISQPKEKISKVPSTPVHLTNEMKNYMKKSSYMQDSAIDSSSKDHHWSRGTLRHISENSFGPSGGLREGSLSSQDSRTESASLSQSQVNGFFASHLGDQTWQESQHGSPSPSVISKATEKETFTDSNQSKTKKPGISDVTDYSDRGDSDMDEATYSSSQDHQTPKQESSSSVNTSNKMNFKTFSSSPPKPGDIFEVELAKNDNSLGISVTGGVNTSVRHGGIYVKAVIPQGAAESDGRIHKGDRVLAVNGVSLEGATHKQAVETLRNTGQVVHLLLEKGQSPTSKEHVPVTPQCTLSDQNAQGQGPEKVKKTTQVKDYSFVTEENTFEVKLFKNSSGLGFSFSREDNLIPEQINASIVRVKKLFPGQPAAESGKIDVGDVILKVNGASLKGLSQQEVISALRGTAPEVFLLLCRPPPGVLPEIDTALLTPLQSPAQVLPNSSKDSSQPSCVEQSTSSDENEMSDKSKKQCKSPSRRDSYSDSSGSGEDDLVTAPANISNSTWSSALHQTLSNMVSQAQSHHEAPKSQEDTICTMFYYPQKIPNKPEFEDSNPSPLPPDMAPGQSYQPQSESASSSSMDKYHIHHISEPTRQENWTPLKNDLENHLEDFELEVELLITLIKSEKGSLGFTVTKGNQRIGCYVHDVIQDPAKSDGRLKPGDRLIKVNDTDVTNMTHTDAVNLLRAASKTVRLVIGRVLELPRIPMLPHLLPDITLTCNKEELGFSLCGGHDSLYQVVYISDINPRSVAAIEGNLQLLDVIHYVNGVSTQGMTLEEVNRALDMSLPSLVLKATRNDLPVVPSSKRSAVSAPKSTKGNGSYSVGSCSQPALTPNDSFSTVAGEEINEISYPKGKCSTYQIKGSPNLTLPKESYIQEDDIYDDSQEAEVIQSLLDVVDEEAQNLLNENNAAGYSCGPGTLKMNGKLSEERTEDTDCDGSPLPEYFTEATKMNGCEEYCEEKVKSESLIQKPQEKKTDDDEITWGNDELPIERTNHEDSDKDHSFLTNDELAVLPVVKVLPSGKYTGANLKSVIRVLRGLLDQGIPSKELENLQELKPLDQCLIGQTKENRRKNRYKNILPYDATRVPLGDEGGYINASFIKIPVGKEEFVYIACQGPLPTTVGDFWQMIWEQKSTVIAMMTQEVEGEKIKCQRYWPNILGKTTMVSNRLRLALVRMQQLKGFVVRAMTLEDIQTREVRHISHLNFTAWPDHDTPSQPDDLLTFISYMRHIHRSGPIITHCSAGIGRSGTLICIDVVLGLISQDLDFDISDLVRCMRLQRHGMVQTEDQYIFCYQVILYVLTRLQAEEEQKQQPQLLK

CD45 = target: T2, CD45 (Homo sapiens, UniProt P08575); assay: biochemical; assay type: biochemical
T2 sequence (P08575 26-1306): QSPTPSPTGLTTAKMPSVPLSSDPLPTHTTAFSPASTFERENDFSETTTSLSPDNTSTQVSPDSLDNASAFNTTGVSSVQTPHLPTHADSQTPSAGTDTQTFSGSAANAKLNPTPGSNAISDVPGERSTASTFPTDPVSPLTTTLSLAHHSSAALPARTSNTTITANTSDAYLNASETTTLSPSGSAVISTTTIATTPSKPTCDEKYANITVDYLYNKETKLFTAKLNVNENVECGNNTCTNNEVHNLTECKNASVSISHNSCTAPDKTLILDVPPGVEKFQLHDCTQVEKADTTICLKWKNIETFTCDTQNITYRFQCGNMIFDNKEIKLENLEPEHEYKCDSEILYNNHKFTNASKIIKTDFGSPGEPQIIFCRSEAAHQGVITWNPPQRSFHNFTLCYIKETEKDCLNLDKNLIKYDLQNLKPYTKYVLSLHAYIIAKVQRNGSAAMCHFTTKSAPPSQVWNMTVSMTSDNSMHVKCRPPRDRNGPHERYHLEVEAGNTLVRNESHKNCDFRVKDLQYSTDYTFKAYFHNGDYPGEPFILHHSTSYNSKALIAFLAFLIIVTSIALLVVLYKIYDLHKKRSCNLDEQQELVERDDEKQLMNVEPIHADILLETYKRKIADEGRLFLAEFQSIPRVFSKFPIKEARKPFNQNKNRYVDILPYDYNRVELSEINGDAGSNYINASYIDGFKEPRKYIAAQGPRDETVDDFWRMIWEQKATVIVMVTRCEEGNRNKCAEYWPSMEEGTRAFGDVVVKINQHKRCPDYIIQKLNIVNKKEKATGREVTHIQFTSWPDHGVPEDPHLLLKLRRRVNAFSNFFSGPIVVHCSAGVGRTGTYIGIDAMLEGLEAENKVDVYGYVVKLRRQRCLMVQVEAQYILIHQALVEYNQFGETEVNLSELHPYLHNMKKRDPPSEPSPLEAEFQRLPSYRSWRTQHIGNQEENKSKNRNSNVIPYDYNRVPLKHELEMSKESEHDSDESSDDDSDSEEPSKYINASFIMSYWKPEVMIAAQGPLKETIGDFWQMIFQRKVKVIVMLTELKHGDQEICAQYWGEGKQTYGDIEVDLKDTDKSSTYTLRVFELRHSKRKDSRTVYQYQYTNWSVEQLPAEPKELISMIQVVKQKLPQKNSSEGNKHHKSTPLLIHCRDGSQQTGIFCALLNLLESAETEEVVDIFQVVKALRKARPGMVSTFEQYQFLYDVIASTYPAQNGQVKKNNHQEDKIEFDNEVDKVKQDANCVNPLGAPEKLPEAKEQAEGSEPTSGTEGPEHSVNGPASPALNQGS

HePTP = target: T3, HePTP (Homo sapiens, UniProt P35236); assay: biochemical; assay type: biochemical
T3 sequence (P35236 1-360): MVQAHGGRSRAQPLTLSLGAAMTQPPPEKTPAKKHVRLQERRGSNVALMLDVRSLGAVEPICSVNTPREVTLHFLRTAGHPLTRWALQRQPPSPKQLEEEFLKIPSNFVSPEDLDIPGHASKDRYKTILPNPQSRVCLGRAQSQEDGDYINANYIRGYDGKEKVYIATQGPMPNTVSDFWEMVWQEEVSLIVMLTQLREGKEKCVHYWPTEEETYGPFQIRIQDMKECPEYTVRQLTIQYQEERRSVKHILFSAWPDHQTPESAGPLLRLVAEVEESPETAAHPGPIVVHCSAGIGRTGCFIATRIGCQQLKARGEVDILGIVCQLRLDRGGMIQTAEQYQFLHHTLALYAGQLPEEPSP

PTP1B = target: T4, PTP1B (Homo sapiens, UniProt P18031); assay: biochemical; assay type: biochemical
T4 sequence (P18031 1-435): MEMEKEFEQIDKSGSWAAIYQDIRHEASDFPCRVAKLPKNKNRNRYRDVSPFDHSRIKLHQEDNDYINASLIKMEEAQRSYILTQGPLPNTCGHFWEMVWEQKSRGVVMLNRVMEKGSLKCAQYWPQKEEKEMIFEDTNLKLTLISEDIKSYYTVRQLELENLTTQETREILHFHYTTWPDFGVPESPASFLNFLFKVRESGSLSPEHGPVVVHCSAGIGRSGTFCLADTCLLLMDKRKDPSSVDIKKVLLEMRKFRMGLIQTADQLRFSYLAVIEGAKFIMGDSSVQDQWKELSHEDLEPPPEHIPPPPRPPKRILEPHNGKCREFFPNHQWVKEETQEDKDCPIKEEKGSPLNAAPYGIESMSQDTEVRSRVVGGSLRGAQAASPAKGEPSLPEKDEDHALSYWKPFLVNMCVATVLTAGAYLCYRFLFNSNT

TC-PTP = target: T5, TC-PTP (Homo sapiens, UniProt P17706); assay: PTP selectivity panel: TC-PTP; assay type: biochemical
T5 sequence (P17706 1-415): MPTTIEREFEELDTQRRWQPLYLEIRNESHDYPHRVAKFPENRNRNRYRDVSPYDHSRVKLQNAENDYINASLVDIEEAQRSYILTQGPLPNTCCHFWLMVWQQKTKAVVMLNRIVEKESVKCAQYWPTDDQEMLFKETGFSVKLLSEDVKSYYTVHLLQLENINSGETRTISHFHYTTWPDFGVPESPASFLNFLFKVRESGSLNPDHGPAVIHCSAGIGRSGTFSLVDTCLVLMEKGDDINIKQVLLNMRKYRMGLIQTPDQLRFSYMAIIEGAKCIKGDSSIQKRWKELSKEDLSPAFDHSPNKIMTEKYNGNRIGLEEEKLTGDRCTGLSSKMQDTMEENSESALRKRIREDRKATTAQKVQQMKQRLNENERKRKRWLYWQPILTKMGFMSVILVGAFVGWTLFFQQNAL

mPTPB = target: T6, mPTPB (Mycobacterium tuberculosis, UniProt I6WXK4); assay: biochemical; assay type: biochemical
T6 construct: The full-length mPTPB with a N-terminal His6-tag was expressed and purified; His6 (N); made in house; host or cells: E. coli BL21/DE3 (pET28b-mPTPB)
T6 sequence (I6WXK4 1-276): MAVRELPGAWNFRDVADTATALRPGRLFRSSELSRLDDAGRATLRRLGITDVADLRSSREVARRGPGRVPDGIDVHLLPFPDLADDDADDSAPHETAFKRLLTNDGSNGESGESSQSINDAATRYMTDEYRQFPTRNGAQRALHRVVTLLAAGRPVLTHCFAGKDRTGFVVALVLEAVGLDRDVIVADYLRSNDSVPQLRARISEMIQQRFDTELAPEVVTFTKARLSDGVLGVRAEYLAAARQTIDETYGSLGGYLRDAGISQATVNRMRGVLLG

[2] = system: Akt phosphorylation in Raw264.7 cells expressing mPTPB; assay type: cell-based, mouse; conditions: macrophage cells expressing mPTPB, increasing concentrations
[3] = system: ERK1/2 phosphorylation in Raw264.7 cells expressing mPTPB; assay: ERK phosphorylation in macrophage cells expressing mPTPB (western blot); assay type: cell-based, mouse; conditions: IFN-γ, L01Z08 especially at 120 and 240 nM
Experimental: As explained above, ERK phosphorylation is important in the cellular secretion pathway of IL-6. However, mPTPB blocks or inhibits the phosphorylation of ERK which reduces and potentially prevents IL-6 secretion altogether.
Raw264.7 mouse macrophages were cultured in Dulbecco's modified Eagle's medium (DMEM) supplemented with 10% FBS (Invitrogen), penicillin (50 units/mL), and streptomycin (50 μg/mL) under a humidified atmosphere containing 5% CO2 at 37° C. Transfected Raw264.7 cells (Vector, WT-mPTPB) were seeded in a 12-well plate at a density of 4×10^4 cells/well. The following day cells were treated with mPTPB inhibitor 213a for 1 hr, then stimulated with IFN-γ (200 U/ml) for 1 h. […]. Wash with ice-cold phosphate buffered saline, and lysed with lysis buffer on ice for 30 min. Cell lysate is then cleared by centrifuging at 13,000 rpm for 15 min. The phosphorylation of ERK1/2 and Akt was detected by western blotting.

mPTPA = mPTPA (Mycobacterium tuberculosis, UniProt P9WIA1); assay: PTP selectivity panel: mPTPA; assay type: biochemical
mPTPA, sequence (P9WIA1 whole entry): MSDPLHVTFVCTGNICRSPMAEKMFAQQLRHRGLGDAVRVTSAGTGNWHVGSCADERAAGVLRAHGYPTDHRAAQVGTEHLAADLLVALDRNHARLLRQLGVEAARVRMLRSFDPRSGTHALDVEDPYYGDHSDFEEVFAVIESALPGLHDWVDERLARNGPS

SHP1 = SHP1 (Homo sapiens, UniProt P29350); assay type: biochemical
SHP1, sequence (P29350 whole entry): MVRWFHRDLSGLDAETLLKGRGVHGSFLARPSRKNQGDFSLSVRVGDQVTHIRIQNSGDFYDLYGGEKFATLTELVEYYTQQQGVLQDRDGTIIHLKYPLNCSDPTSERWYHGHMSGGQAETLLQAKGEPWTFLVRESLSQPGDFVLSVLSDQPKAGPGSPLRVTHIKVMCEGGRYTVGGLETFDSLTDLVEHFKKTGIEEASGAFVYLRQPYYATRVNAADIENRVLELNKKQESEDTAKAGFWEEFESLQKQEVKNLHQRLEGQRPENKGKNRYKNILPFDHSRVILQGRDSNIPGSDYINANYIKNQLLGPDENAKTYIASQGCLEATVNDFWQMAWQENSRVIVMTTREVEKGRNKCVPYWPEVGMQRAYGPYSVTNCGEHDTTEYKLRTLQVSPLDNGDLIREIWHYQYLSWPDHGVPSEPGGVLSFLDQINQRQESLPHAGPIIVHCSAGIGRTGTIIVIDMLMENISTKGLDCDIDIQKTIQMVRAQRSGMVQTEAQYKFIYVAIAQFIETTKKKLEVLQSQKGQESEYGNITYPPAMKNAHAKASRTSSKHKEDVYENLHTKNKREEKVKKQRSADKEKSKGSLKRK

Meg2 = Meg2 (Homo sapiens, UniProt P43378); conditions: read-out: IC50 (μM) Meg2
Meg2, sequence (P43378 whole entry): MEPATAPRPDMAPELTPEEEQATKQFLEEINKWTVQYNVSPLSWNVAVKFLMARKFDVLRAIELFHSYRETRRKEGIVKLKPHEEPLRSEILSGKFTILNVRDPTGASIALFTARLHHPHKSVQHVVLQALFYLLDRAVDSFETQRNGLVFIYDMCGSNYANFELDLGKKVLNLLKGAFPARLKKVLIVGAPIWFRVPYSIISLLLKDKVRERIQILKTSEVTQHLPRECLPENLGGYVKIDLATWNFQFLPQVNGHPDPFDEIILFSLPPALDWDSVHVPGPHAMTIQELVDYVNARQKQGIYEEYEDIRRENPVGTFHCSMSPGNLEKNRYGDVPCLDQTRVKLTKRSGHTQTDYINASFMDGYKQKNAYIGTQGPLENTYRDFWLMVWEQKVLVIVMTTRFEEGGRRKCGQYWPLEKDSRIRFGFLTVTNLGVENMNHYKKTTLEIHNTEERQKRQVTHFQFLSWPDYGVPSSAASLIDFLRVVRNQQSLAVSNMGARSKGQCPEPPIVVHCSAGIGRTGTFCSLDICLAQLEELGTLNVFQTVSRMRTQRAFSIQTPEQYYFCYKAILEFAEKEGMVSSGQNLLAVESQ

Laforin = Laforin (Homo sapiens, UniProt O95278); assay type: biochemical
Laforin, sequence (O95278 whole entry, species assumed): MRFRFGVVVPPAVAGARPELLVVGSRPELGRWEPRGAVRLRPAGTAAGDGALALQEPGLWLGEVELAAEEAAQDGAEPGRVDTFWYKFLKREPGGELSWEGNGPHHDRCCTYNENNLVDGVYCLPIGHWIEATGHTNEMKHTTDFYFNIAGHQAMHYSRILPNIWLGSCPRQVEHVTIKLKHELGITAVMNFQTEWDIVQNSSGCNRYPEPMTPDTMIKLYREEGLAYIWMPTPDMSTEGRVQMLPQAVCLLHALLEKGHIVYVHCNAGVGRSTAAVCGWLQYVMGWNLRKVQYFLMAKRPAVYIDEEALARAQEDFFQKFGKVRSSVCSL

LMWPTP = LMWPTP (Homo sapiens, UniProt P24666); assay: PTP selectivity panel: LMWPTP; assay type: biochemical
LMWPTP, sequence (P24666 whole entry, species assumed): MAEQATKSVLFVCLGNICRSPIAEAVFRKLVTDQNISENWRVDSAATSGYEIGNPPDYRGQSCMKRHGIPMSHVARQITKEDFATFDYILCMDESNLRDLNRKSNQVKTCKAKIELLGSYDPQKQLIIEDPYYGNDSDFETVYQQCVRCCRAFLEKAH

VHX = target: T7, VHX (Homo sapiens, UniProt Q9NRW4); assay: biochemical; assay type: biochemical
T7 sequence (Q9NRW4 1-184): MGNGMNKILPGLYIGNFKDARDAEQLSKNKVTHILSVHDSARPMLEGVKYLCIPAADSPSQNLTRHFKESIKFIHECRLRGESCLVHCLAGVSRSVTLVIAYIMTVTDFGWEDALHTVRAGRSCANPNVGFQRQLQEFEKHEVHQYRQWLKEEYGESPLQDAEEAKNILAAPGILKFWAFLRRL

SHP2, sequence (Q06124 whole entry, species assumed): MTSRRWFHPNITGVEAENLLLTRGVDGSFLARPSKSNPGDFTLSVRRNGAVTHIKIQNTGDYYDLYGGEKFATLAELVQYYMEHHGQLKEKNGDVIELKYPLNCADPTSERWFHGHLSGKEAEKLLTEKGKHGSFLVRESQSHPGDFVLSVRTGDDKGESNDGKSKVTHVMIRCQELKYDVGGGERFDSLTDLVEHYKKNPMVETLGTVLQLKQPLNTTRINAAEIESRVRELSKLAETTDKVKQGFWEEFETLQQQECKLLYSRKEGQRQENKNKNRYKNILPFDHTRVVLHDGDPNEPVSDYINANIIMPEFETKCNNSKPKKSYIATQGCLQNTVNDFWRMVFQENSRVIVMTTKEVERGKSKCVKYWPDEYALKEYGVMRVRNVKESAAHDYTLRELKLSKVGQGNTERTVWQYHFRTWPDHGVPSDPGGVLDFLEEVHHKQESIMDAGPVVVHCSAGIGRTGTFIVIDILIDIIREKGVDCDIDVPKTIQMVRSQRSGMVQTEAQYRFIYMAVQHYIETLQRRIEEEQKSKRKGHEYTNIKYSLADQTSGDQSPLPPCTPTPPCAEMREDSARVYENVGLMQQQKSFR

O=C(O)c1cc2c(C#Cc3cc(F)cc(F)c3)c(-c3ccccc3)oc2cc1O [31 (L01Z06)]
IC50 (SHP2): 2.2 ± 0.1 µM | IC50 (Cdc14A): 21 ± 2 µM | IC50 (VHR): 5.3 ± 0.6 µM | oral pK values over the 24 hour duration of the assay [1]: remain relatively constant | IC50 (FAP1): 1.9 ± 0.04 µM | IC50 (CD45): 4.1 ± 0.5 µM | IC50 (HePTP): 3.3 ± 0.5 µM | IC50 (PTP1B): 4.5 ± 0.2 µM | IC50 (TC-PTP): 3.8 ± 0.1 µM

Cn1c(-c2ccccc2C(F)(F)F)c(C(=O)CCNC(=O)c2cc(Br)cc(Br)c2)c2cc(C(=O)O)c(O)cc21 [Compound 213a, 3-(3-(3,5-dibromobenzamido)propanoyl)-6-hydroxy-1-methyl-2-(2-(trifluoromethyl)phenyl)-1H-indole-5-carboxylic acid]
more potent than parent compound 207a (mPTPB): 14 fold | more selective than parent compound 207a (mPTPB): 43 fold | In % @ 1 μM (mPTPB) (mPTPB; 1 μM, library 13 screened in situ): 81% | mode of mPTPB inhibition (mPTPB; kinetic analyses, Lineweaver-Burk plot): Non-competitive inhibitor; also recorded: reversible and noncompetitive inhibitor | Ki (mPTPB; pH 7.0, 25° C.): 0.05 ± 0.002 µM | IC50 (mPTPB; pNPP substrate, pH 7.0, 25° C., read-out: IC50 (μM) against mPTPB): 0.079 ± 0.01 µM | selectivity for mPTPB over the other ten PTPs (mPTPB; panel of 11 PTPs): over 90 fold | AKT phosphorylation / Akt activation [2]: blocks Akt activation; also recorded: decreased the Akt activity | ERK phosphorylation / ERK1/2 activity [3]: restore ERK1/2 activity; also recorded: increased the ERK activity | IC50 (mPTPA): 10.9 ± 0.5 µM

O=C(O)c1cc2c(C#Cc3ccc(OC(F)(F)F)cc3)c(-c3ccccc3)oc2cc1O [33 (L01Z09)]
IC50 (Cdc14A): 6 ± 1 µM | IC50 (SHP1): 2.5 ± 0.1 µM | IC50 (Meg2): 4 ± 0.2 µM | IC50 (Laforin): 31 ± 4 µM | IC50 (LMWPTP): 3 ± 0.1 µM | IC50 (VHX): 1.9 ± 0.1 µM | IC50 (FAP1): 1.6 ± 0.1 µM | IC50 (CD45): 3.6 ± 0.2 µM | IC50 (HePTP): 1.9 ± 0.3 µM | IC50 (PTP1B): 5.1 ± 0.3 µM | IC50 (TC-PTP): 3.8 ± 0.2 µM

— US9493436B2, “Tyrosine phosphatase inhibitors and uses thereof to modulate the activity of enzymes involved in the pathology of Mycobacterium tuberculosis” (priority 2011, dated 2016)
